Source: article PMC12845078 (Pharmaceuticals, 2025)
Marks after values point to notes of the source that are not given here.

Legend:
[1] = Plasma protein binding (rapid equilibrium dialysis), dog; settings: beagle, dog, plasma, pH 7.4
Description: (§3) After incubation for 20 min, a portion of the whole blood was centrifuged at 2500× g for 10 min at 4 °C to separate plasma; another portion of the whole blood was subjected to three cycles of freeze–thawing and ultrasonicated for 10 min to disrupt cells. Equal volumes of plasma and whole blood samples were added to the whole blood and plasma specimens, respectively, followed by protein precipitation with acetonitrile containing an internal standard (IS). […] The RED inserts were placed in the matching incubation plate: 200 µL of drug-containing matrix were added to the sample chamber, and 400 µL of PBS buffer (pH: 7.4) were added to the buffer chamber. After incubation in a constant-temperature shaking incubator for 6 h (37 °C), samples from the sample chamber and buffer chamber were diluted 1:1 with PBS or matrix, respectively, and proteins were precipitated with acetonitrile containing IS.

[2] = Plasma protein binding (rapid equilibrium dialysis), mouse; format: in vitro ADME; settings: pH 7.4
Description: as §3

[3] = Pharmacokinetics of MT and CBD in rats after pre-administration of ABT
Description: Twelve SD rats were randomly divided into two groups. Both groups were first given an intragastric administration of 1-aminobenzotriazole (ABT) at a dose of 200 mg/kg. […] The administration volume for all groups was 5 mL/kg. […] Approximately 50 μL of venous blood were collected into heparin sodium anticoagulant tubes and placed on ice. The sample processing and storage methods were the same as described previously.
Subsequently, the resultant mixture was vortexed for 1 minute and centrifuged at 4 °C for 10 min at 18,800× g. […] The lowest limit of quantification (LLOQ) was established at 2 ng/mL.
Kromasil 100-5-C8 (2.1 × 50 mm) was selected for the separation of samples. The mobile phase consisted of solvent A (water with 0.1% formic acid and 5 mM ammonium acetate) and solvent B (methanol with 0.1% formic acid). […] The column temperature was set at 40 °C. The two eluents were 0.1% formic acid and 5 mM ammonium acetate in water (A) and 0.1% formic acid in methanol (B). […] The main mass spectrometry detection parameters were: dry gas 10 L/min, heated gas 10 L/min, collision gas 270 kPa, ion source temperature 300 °C, desolvation temperature 250 °C, and heating module temperature 400 °C.
Pharmacokinetic parameters: GraphPad Prism 10.1 software was utilized to draw the curves. Noncompartmental analysis was selected to calculate the major PK parameters, including clearance (CL), volume (V), half-life (t1/2), peak concentration (Cmax), and area under the curve (AUC), using WinNonlin 8.1.

[4] = Pharmacokinetics of MT, 6-HMT and CBD in beagles after oral administration; settings: male, beagle, dog, in vivo, po, 3 mg/kg, p.o.; for AUC(0-t) / AUC(0-inf) / Cmax / MRT last / Tmax: beagles; for MRT last: MRT(0–t); for half-life: t1/2, beagles
Description: Twelve male healthy adult beagles (weighing 10 ± 2 kg) were randomly divided into two groups. […] The drugs were dissolved in a physiological saline solution containing 5% castor oil, with an administration volume of 2 mL/kg. Blood samples were collected at the time points of pre-administration and 0.083, 0.25, 0.5, 0.75, 1, 1.5, 2, 4, 6, 8, and 12 h post-administration.
(§1) The column temperature was set at 40 °C.

[5] = Liver microsome protein binding, dog; format: in vitro ADME; settings: beagle, liver microsomes, pH 7.4
Description: as §3

[6] = Plasma protein binding (rapid equilibrium dialysis), human; format: in vitro ADME; settings: pH 7.4, read-out: Plasma Protein Binding (converted)
Description: as §3

PEPT1 = target: T1, PEPT1 (Homo sapiens, UniProt P46059); assay: Uptake and uptake inhibition in MDCK/hPEPT1 cell model; format: cell-based; settings: 4 °C and 37 °C
T1 construct: host or cells: MDCK
T1 sequence (P46059 1-708): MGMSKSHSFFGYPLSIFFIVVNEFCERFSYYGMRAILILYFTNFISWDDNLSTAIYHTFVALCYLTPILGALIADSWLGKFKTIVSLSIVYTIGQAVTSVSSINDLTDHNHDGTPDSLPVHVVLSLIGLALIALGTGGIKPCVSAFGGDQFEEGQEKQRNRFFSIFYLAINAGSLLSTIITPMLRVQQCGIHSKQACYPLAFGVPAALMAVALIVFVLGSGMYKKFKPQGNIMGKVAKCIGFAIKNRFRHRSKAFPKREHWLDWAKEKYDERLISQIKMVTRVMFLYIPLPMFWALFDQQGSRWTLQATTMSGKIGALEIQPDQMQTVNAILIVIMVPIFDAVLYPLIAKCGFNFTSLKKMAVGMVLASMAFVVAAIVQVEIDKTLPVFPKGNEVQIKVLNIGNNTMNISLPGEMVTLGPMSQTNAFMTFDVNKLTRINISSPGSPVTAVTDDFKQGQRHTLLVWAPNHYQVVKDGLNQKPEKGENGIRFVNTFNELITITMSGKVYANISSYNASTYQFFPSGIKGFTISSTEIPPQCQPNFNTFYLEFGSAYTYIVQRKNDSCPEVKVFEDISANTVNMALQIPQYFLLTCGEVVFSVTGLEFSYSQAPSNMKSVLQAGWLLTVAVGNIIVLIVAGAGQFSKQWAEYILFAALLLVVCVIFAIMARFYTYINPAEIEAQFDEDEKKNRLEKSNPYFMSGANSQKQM
Description: MDCK-PEPT1 cells were seeded into 24-well plates at a density of approximately 5 × 10^5 cells per well. When the cell confluency reached 60–70%, the culture medium was aspirated, and the cells were rinsed twice with HBSS pre-warmed to 37 °C. […] After incubation at 37 °C for 10 min, the buffer was aspirated, and ice-cold HBSS was immediately added to terminate the reaction, followed by rinsing three times. After drying the residual liquid, 200 μL of pure water were added to each well, and the cells were lysed by repeated freezing–thawing in liquid nitrogen three times. The cell lysates were collected, and the protein content was determined by the BCA method.
Cell uptake assessment: The concentration of the analyte in cells was corrected using the protein concentration of the cell lysate in each well.(4) Conclysate=Concdrug/ConcProtein
The uptake rate (U, pmol/mg/min) of the compound was calculated following Formula (5).(5) U=Clysate/P×t where Clysate is the amount of drug in the cell lysate (ng); P is cellular protein content (mg); t is incubation time (min).
The uptake ratio of the compound was calculated following Formula (6)(6) UR=U/ UMOCK where UMOCK is the uptake rate in MOCK-MDCK cells (pmol/mg/min).
The inhibition ratio was calculated following Formula (7)(7) IR=(1−Uwith inhibitor−Umock with inhibitor/Uwithout inhibitor−Umock without inhibitor)×100%

[7] = Plasma protein binding (rapid equilibrium dialysis), rat; format: in vitro ADME; settings: plasma, pH 7.4
Description: as §3

[8] = Liver microsome protein binding, rat; format: in vitro ADME; settings: liver microsomes, pH 7.4
[9] = system: CYP1A2-mediated metabolism of MT; assay: Static DDI model prediction of CBD's impact on MT exposure, beagle; design: species or system beagle dog; settings: input of static DDI model
Source text: (§2) (AUC when co-administered with the inhibitor) to AUC[contr] (AUC without the inhibitor).

[10] = system: CYP1A2-mediated metabolism of MT; assay: Static DDI model prediction of CBD's impact on MT exposure, rat; settings: input of static DDI model
Source text: as §2

[11] = Liver microsome protein binding, human; format: in vitro ADME; settings: liver microsomes, pH 7.4
Description: as §3

[12] = Pharmacokinetics of MT, 6-HMT and CBD in SD rats (i.v. and oral); settings: for MRT last: MRT(0–t)
Description: The drugs were dissolved in the same manner as described previously, with an administration volume of 5 mL/kg for all groups. Blood samples were collected at the time points of pre-administration and 0.033 (only for the intravenous administration group), 0.083, 0.25, 0.5, 0.75, 1, 1.5, 2, 4, 6, 8, and 12 h post-administration.
as §1

[13] = Brain tissue protein binding, rat; format: in vitro ADME; settings: pH 7.4
Description: as §3

[14] = Sprague-Dawley, rat, in vivo, po, 5 mg/kg
[15] = male, Sprague-Dawley, rat, in vivo, po, 5 mg/kg, rats, p.o., MT + CBD (5 + 5) mg/kg
[16] = male, Sprague-Dawley, rat, in vivo, po, 5 mg/kg, rats, p.o., MT + CBD (5 + 20) mg/kg
[17] = male, Sprague-Dawley, rat, in vivo, po, 5 mg/kg, rats, p.o., MT + Vehicle 5 mg/kg

Compound: COc1ccc2[nH]cc(CCNC(C)=O)c2c1 [MT, Melatonin]
- fraction unbound at 6 h [1]: 0.364
- fraction unbound at 6 h [2]: 0.451
- AUC of MT reduced by co-administration of CBD ([3]; ABT-treated rats): 2.29 fold
- Cmax of MT reduced by co-administration of CBD ([3]; ABT-treated rats): 2.3 fold
- AUC(0-t) [3, 14]: 8840 ng·h/mL
- Cmax [3, 14]: 2100 ng/mL
- Tmax [3, 14]: 30 min
- half-life [3, 14]: 78.6 min
- AUC(0-t) ([4]; MT + CBD (3 + 3) mg/kg): 2540 ng·h/mL
- AUC(0-t) ([4]; MT + Vehicle 3 mg/kg): 602 ng·h/mL
- AUC(0-inf) ([4]; MT + CBD (3 + 3) mg/kg): 2550 ng·h/mL
- AUC(0-inf) ([4]; MT + Vehicle 3 mg/kg): 612 ng·h/mL
- Cmax ([4]; MT + CBD (3 + 3) mg/kg): 1360 ng/mL
- Cmax ([4]; MT + Vehicle 3 mg/kg): 1080 ng/mL
- MRT last ([4]; MT + CBD (3 + 3) mg/kg): 99.6 min
- MRT last ([4]; MT + Vehicle 3 mg/kg): 30 min
- Tmax ([4]; MT + CBD (3 + 3) mg/kg): 42.6 min
- Tmax ([4]; MT + Vehicle 3 mg/kg): 13.2 min
- half-life ([4]; MT + CBD (3 + 3) mg/kg): 55.2 min
- half-life ([4]; MT + Vehicle 3 mg/kg): 19.8 min
- fraction unbound at 6 h [5]: 0.78
- fraction unbound at 6 h [6]: 0.388
- uptake rate of MT, MOCK cells vs transfected cells (PEPT1): no difference
- fraction unbound at 6 h [7]: 0.425
- fraction unbound at 6 h [8]: 0.972
- fm(CYP1A2), proportion of MT metabolized by CYP1A2 [9]: 0.92
- fm(CYP1A2), proportion of MT metabolized by CYP1A2 [10]: 0.92
- fraction unbound at 6 h [11]: 0.979
- AUC(0-t) ([12]; male, Sprague-Dawley, rat, in vivo, iv, 1 mg/kg, AUC(0–t), rats, i.v., MT + CBD (1 + 1) mg/kg): 260 ng·h/mL
- MRT last ([12]; male, Sprague-Dawley, rat, in vivo, iv, 1 mg/kg, rats, i.v., MT + CBD (1 + 1) mg/kg): 10.2 min
- bioavailability ([12]; male, Sprague-Dawley, rat, in vivo, po, 5 mg/kg): 20.5%
- AUC(0-t) ([12]; male, Sprague-Dawley, rat, in vivo, po, 5 mg/kg, AUC(0–1h), rats, p.o., MT + CBD (5 + 5) mg/kg): 114 ng·h/mL
- AUC(0-t) ([12]; male, Sprague-Dawley, rat, in vivo, po, 5 mg/kg, AUC(0–1h), rats, p.o., MT + CBD (5 + 20) mg/kg): 65.2 ng·h/mL
- AUC(0-t) ([12]; male, Sprague-Dawley, rat, in vivo, po, 5 mg/kg, AUC(0–1h), rats, p.o., MT + Vehicle 5 mg/kg): 241 ng·h/mL
- AUC(0-t) ([12]; male, Sprague-Dawley, rat, in vivo, po, 5 mg/kg, AUC(0–t), rats, p.o., MT + CBD (5 + 5) mg/kg): 138 ng·h/mL
- AUC(0-t) ([12]; male, Sprague-Dawley, rat, in vivo, po, 5 mg/kg, AUC(0–t), rats, p.o., MT + CBD (5 + 20) mg/kg): 121 ng·h/mL
- AUC(0-t) ([12]; male, Sprague-Dawley, rat, in vivo, po, 5 mg/kg, AUC(0–t), rats, p.o., MT + Vehicle 5 mg/kg): 267 ng·h/mL
- Cmax [12, 15]: 212 ng/mL
- Cmax [12, 16]: 99 ng/mL
- Cmax [12, 17]: 588 ng/mL
- MRT last [12, 15]: 39 min
- MRT last [12, 16]: 79.8 min
- MRT last [12, 17]: 40.2 min
- Tmax [12, 15]: 19.8 min
- Tmax [12, 16]: 8.4 min
- Tmax [12, 17]: 10.2 min
- effect of co-administered MT on pharmacokinetic parameters of CBD ([12]; rats, p.o., CBD 20 mg/kg with MT 0, 5 or 20 mg/kg): does not produce obvious pharmacokinetic-based interactions with CBD
- t1/2 ([12]; rats, p.o., MT + CBD (5 + 5) mg/kg): 0.66 (0.14) h
- t1/2 ([12]; rats, p.o., MT + CBD (5 + 20) mg/kg): 1.80 (0.94) * h
- MT total exposure with CBD, as percent of MT alone ([12]; rats, p.o., high CBD dose): 45%
- fraction unbound at 6 h [13]: 0.315
